Structures are written as SMILES.

The target in the first assay is T1, Aldo-keto reductase family 1 member C3 (Homo sapiens, UniProt P42330).
T1 sequence (P42330 whole entry): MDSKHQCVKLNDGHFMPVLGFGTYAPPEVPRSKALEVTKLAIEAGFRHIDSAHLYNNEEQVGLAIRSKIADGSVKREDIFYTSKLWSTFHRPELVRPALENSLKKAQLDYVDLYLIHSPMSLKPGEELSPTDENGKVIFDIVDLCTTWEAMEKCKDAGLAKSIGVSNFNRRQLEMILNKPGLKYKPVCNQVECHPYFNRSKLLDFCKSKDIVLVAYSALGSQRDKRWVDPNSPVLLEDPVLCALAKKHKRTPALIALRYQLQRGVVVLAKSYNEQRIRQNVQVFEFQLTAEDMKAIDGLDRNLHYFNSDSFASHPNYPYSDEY
The assay is described as follows: Inhibition of human recombinant His-tagged AKR1C3 expressed in Escherichia coli BL21 (DE3) cells using 8-Acetyl-2,3,5,6-tetrahydro-1H,4H-11-oxa-3a-aza-benzo[de]anthracen-10-one as substrate after 1 hr in presence of NADPH by fluorescence assay. The note with it: read-out: IC50.
On to `O=C(O)c1cccc(S(=O)(=O)C2CC=CCC2)c1` (stereo not drawn), for which the IC50 is 390 nM.

For the compound `O=C(NN1CCOCC1)c1cccc(S(=O)(=O)N2CCc3ccccc3C2)c1`, the IC50 came to 78 nM.

For the compound `O=C(O)c1cccc(S(=O)(=O)N2CCc3ccc(C#Cc4ccc(C(F)(F)F)cc4)cc3C2)c1`, the IC50 turned out to be 1310 nM.

For `O=C(O)c1cccc(S(=O)(=O)C2CCc3sccc3C2)c1` (stereo not drawn), the IC50 worked out at 25 nM.

On to `CN1CC(c2ccc(S(=O)(=O)N3CCc4ccccc4C3)cc2)CC1=O` (stereo not drawn), for which the IC50 worked out at 42 nM.

Regarding `O=C(NN1CCSCC1)c1cccc(S(=O)(=O)N2CCc3ccccc3C2)c1`, the IC50 stood at 450 nM.

The assay is the same for the next values; noted with them: read-out: pIC50 (converted).
`O=C(O)[C@@H]1CCCN(S(=O)(=O)c2ccc3ccccc3c2)C1`: the IC50 was 31.6 nM.

On to `O=C(O)c1cccc(S(=O)(=O)N2CCc3cc(Br)ccc3C2)c1`, for which the IC50 was 6.03 nM.
